{
  "source": "paper PMC7976604",
  "about": "(ACS Catalysis, 2021)",
  "target": "T1, PA0254/HudA (PA0254^UbiX) (Pseudomonas aeruginosa, UniProt Q9I6N5)",
  "T1 sequence (Q9I6N5 1-496)": "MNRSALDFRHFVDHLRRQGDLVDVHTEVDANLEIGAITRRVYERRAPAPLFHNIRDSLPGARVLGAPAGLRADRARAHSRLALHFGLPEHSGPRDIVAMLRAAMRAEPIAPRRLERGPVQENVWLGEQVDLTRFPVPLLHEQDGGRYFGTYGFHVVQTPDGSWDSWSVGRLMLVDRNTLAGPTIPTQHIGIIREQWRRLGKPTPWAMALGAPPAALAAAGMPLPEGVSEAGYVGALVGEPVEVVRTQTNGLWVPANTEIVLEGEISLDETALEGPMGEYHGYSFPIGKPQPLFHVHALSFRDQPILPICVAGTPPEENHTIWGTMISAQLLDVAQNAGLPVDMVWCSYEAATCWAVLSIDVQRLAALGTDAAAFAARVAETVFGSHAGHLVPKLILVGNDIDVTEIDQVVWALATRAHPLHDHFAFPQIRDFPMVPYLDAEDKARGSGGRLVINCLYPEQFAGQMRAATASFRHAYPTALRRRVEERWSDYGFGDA",
  "test": "inhibition of P2C decarboxylation, histidine-eluted enzyme",
  "type": "biochemical",
  "conditions": "read-out: % inhibition at 10 mM",
  "data": [
    {"smiles": "c1c[nH]cn1", "note": "[imidazole]", "values": [
      {"measurement": "inhibition at 10000 µM", "result": "~50", "unit": "%"}
    ]}
  ]
}
